Data reported in patent US9497972B2, “Compositions comprising a biological control agent and an insecticide” (priority 2012, dated 2016).

Experiments:
Type in all cases: in vivo
Myzus persicae [1] = assay: Myzus persicae spray test (MYZUPE), Example A: Chinese cabbage leaf-disks
Description: (§1) For all examples efficiencies of the compositions comprising at least one BCA and at least one specific insecticide has been determined by the “Colby-formula”: The expected efficacy of a given combination of two compounds is calculated as follows (see Colby, S. R., “Calculating Synergistic and antagonistic Responses of Herbicide Combinations”, Weeds 15, pp. 20-22, 1967):
(§2) If • X is the efficacy expressed in % mortality of the untreated control for test compound A at a concentration of m ppm respectively m g/ha, • Y is the efficacy expressed in % mortality of the untreated control for test compound B at a concentration of n ppm respectively n g/ha, • E is the efficacy expressed in % mortality of the untreated control using the mixture of A and B at m and n ppm respectively m and n g/ha, then is E=X+Y−(X×Y/100)
(§3) If the observed insecticidal efficacy of the combination is higher than the one calculated as “E”, then the combination of the two compounds is more than additive, i.e., there is a synergistic effect.
Myzus persicae—Spray Test (MYZUPE)
(§4) To produce a suitable preparation of active compound, 1 part by weight of active compound is mixed with the stated amount of solvent and emulsifier, and the concentrate is diluted with emulsifier-containing water to the desired concentration. To produce a suitable preparation of a spore suspension the spores are diluted with emulsifier-containing water to the desired concentration.
Chinese cabbage (Brassica pekinensis) leaf-disks infected with all instars of the green peach aphid (Myzus persicae), are sprayed with a preparation of the active ingredient of the desired concentration.
After the specified period of time, mortality in % is determined. 100% means all aphids have been killed; 0% means none of the aphids have been killed. The mortality values determined thus are recalculated using the Colby-formula (see above).

Phaedon cochleariae = Phaedon cochleariae spray test, Example C: Chinese cabbage leaf-disks
Description: as §1, §2, §3
Phaedon cochleariae—Spray Test
as §4
Chinese cabbage (Brassica pekinensis) leaf-disks are sprayed with a preparation of the active ingredient of the desired concentration. Once dry, the leaf disks are infested with mustard beetle larvae (Phaedon cochleariae).
After the specified period of time, mortality in % is determined. 100% means all beetle larvae have been killed and 0% means none of the beetle larvae have been killed. The mortality values determined thus are recalculated using the Colby-formula (see above).

Myzus persicae [2] = assay: Myzus persicae spray test, Example E: cabbage leaves (Brassica oleracea); settings: 1 ppm
Description: as §1, §2, §3
Myzus persicae—Spray Test […]
(§5) After the specified period of time, mortality in % is determined. […] The mortality values determined thus are recalculated using the Colby-formula (see above).

Tetranychus urticae = Tetranychus urticae spray test, OP-resistant, Example B: French beans
Description: as §1, §2, §3
Tetranychus urticae—Spray Test, OP-Resistant […]
as §5

Spodoptera frugiperda = Spodoptera frugiperda spray test, Example D: maize leaf sections
Description: as §1, §2, §3
Spodoptera frugiperda—Spray Test
as §4, with “preparation of the active compound,” for “preparation of active compound,”
Maize (Zea mais) leaf sections are sprayed with a preparation of the active ingredient of the desired concentration. Once dry, the leaf sections are infested with fall armyworm larvae (Spodoptera frugiperda).
After the specified period of time, mortality in % is determined. 100% means all caterpillars have been killed and 0% means none of the caterpillars have been killed. The mortality values determined thus are recalculated using the Colby-formula (see above).

CC(c1ccc(C(F)(F)F)nc1)S(C)(=O)=NC#N (centres unmarked) [Sulfoxaflor (I149), Sulfoxaflor]
Efficacy in % after 6^d (Myzus persicae [1]; 0.08 g/ha): 70%
Efficacy in % after 6^d (Myzus persicae [1]; 0.4 g/ha): 70%

O=[N+]([O-])NC1=NCCN1Cc1ccc(Cl)nc1 [Imidacloprid (I144), Imidacloprid]
Efficacy in % after 6^d (Myzus persicae [1]; 0.032 g/ha): 0%
Efficacy in % after 1^d (Myzus persicae [1]; 0.16 g/ha): 0%
Efficacy in % after 1^d (Myzus persicae [1]; 0.4 g/ha): 70%

CN/C(=N\[N+](=O)[O-])NCc1cnc(Cl)s1 [Clothianidin (I142), Clothianidin]
Efficacy in % after 1^d (Myzus persicae [1]; 0.8 g/ha): 70%
Efficacy in % after 6^d (Myzus persicae [1]; 4 g/ha): 70%
Efficacy in % after 2^d (Phaedon cochleariae; 20 g ai/ha): 0%

N#C/N=C1\SCCN1Cc1ccc(Cl)nc1 [Thiacloprid (I146), Thiacloprid]
Efficacy in % after 6^d (Myzus persicae [1]; 0.16 g/ha): 0%
Efficacy in % after 6^d (Myzus persicae [1]; 0.8 g/ha): 70%
Efficacy in % after 1^d (Myzus persicae [2]): 35%

Spinosad [Spinosad (I151)]
Efficacy in % after 6^d (Myzus persicae [1]; 20 g/ha): 0%
Efficacy in % after 6^d (Tetranychus urticae; 4 g ai/ha): 0%
Efficacy in % after 2^d (Tetranychus urticae; 20 g ai/ha): 50%
Efficacy in % after 6^d (Phaedon cochleariae; 4 g ai/ha): 0%
Efficacy in % after 6^d (Spodoptera frugiperda; 0.16 g ai/ha): 0%
Efficacy in % after 2^d (Spodoptera frugiperda; 0.8 g ai/ha): 0%

CN1COCN(Cc2cnc(Cl)s2)/C1=N\[N+](=O)[O-] [Thiamethoxam (I147), Thiamethoxam]
Efficacy in % after 6^d (Myzus persicae [1]; 0.16 g/ha): 0%
Efficacy in % after 1^d (Myzus persicae [1]; 0.4 g/ha): 0%
Efficacy in % after 1^d (Myzus persicae [1]; 2 g/ha): 0%

Spinetoram [Spinetoram (I150)]
Efficacy in % after 6^d (Phaedon cochleariae; 0.16 g ai/ha): 0%
Efficacy in % after 6^d (Phaedon cochleariae; 0.8 g ai/ha): 33%
Efficacy in % after 2^d (Spodoptera frugiperda; 0.16 g ai/ha): 67%
